Test results as given in paper PMC11996864, “A small-molecule inhibitor of BCL10-MALT1 interaction abrogates progression of diffuse large B cell lymphoma” (The Journal of Clinical Investigation, 2025).
“And” between values parts separate entries of the source, which are not always exact repeats. Equal entries are not always repeated.

Assays:
OCI-Ly3 cells [1] = experiment: IL6 and IL10 mRNA, qRT-PCR; assay type: cell-based, human; conditions: for IL6 and IL10 mRNA levels: OCI-Ly3, 1 μM, 24 hours, result in words; for IL6 mRNA levels (normalized) / IL10 mRNA levels (normalized): Suppl Fig. 5C
Procedure: Total RNA extraction from cell lines was performed using RNeasy Plus Mini Kit (Qiagen, Cat# 74136). […]
Kit. RNA was transcribed into cDNA using High-Capacity cDNA Reverse Transcription Kit (Applied Biosystems, Cat# 4368814) according to manufacturer’s instructions. RT-PCR was performed using TaqMan Universal PCR Master Mix (Applied Biosystems, Cat# 4304437) and run on a StepOnePlus Real-Time PCR machine (Applied Biosystems). The following probes from ThermoFisher Scientific were used for qRT-PCR: IL2 TaqMan probe Hs00174114, IL6 TaqMan

OCI-Ly3 cells [2] = experiment: cells; parameters: species or system TMD8 or OCI-Ly3; Inhibition of spontaneous IL-6 secretion from ABC-DLBCL cells, human IL-6 ELISA of supernatants; conditions: Homo sapiens, OCI-Ly3, 20 h; IL-6 secretion; read-out: IC50 (µM) IL-6 inhibition
Procedure: (§1) Cytokine ELISAs. Cytokines in cell culture supernatants were measured 20-24h after treatment with 0, 0.01, 0.03, 0.1, 0.3, 1, or 3 µM of compounds using the following ELISA kits according to the manufacturer’s instructions: Human IL-2 ELISA (BioLegend Cat# 431804), Human IL-6 ELISA (BioLegend Cat# 430504), and Human IL-10 ELISA (BioLegend Cat# 430604). TMD8 and OCI-Ly3 cells were treated with specific doses of compounds in serum-free media for 20 hours. Jurkat T cells were pretreated with specific doses of compounds for 8 hours in serum-free media, then stimulated with PMA/ionomycin for 16 hours prior to the collection of supernatants. Mouse splenocytes were isolated from spleens of C57/BL6 mice by passing spleens through a 70 micron filter followed by red blood cell lysis using ACK lysing buffer (Quality Biologics, Cat# 118-156-101). […] Supernatant was collected at 24 hours and mouse IL-2 levels were analyzed via ELISA (R&D Systems, Cat# DY402-05). IL-6 and IL-10 are NF-κB–induced cytokines that promote the proliferation and survival of malignant B cells through both autocrine and paracrine mechanisms ([44]), and are negative prognostic factors in ABC-DLBCL ([45], [46]). ABC-DLBCL cell lines spontaneously secrete substantial levels of IL-6 and IL-10, whereas GCB-DLBCL cell lines express only a negligible amount of these cytokines ([24]). […] The IC50 for inhibition of cytokine secretion by each compound in each cell line is reported in Supplemental Table 1.  Figure 4 M1i-124 and M1i-124d1 inhibit MALT1 protease and scaffolding functions, and MALT1-dependent cytokine secretion, in ABC-DLBCL cells. (A and B) Effect of 1 μM compound pretreatment on constitutive RelB cleavage (A) and IκB phosphorylation (B) within TMD8 cells. Representative Western blots are shown along with quantification (mean ± SEM; n = 2). (C) IL6 and IL10 mRNA levels in TMD8 cells treated with 1 μM M1i-124 or M1i-124d1 (mean ± SEM; n = 6). […] Statistical analyses were performed using 1-way ANOVA and Dunnett’s multiple-comparison test. **P < 0.01, ***P < 0.001, ****P < 0.0001.

TMD8 cells = experiment: cells; parameters: species or system TMD8 or OCI-Ly3; Inhibition of spontaneous IL-6 secretion from ABC-DLBCL cells, human IL-6 ELISA of supernatants; conditions: Homo sapiens, TMD8, 20 h; IL-6 secretion; read-out: IC50 (µM) IL-6 inhibition
Procedure: as §1

SMILES | IL6 and IL10 mRNA levels (OCI-Ly3 cells [1]) | IL6 mRNA levels (normalized) (OCI-Ly3 cells [1]) | IL10 mRNA levels (normalized) (OCI-Ly3 cells [1]) | IC50 (OCI-Ly3 cells [2]) [µM] | IC50 (TMD8 cells) [µM]
COc1ccc(CNS(=O)(=O)c2ccc(Cc3ccc(S(=O)(=O)NCc4ccc(OC)cc4)cc3)cc2)cc1 [M1i-124d1] | significantly decrease IL6 and IL10 mRNA levels | 0.61 and 0.76 and 0.58 and 0.67 and 0.68 | 0.5473 and 0.5 and 0.74 and 0.4125 and 0.4002 and 0.6402 | > 3 | 0.8
O=S(=O)(NCc1ccc2c(c1)OCO2)c1ccc(Cc2ccc(S(=O)(=O)NCc3ccc4c(c3)OCO4)cc2)cc1 [M1i-124] | significantly decrease IL6 and IL10 mRNA levels | 0.63 and 0.57 and 0.56 and 0.54 and 0.48 and 0.61 | 0.7074 and 0.77 and 0.73 and 0.8 and 0.4913 and 0.4249 and 0.7438 | 0.8 | 1.3
